Data published in patent US10800755B2, “2,6-disubstituted pyridine derivative” (Sumitomo Dainippon Pharma Co., Ltd., priority 2017, dated 2020).
Where two headings read alike, the source gives them in different places.

Tests used:
human 5-HT1A receptor [1] = biological target: T1, human 5-HT1A receptor (Homo sapiens (Human), UniProt P08908); assay: Test 1: agonistic activity for human 5-HT1A receptor (aequorin/Gα16 luminescence in CHO-K1 cell); type: cell-based; conditions: for 5-HT1A agonistic activity Emax / Emax: 100% = 10 μmol/L endogenous ligand; for EC50: CHO-K1 cell, aequorin luminescence; for Emax: CHO-K1
T1 sequence (P08908 whole entry): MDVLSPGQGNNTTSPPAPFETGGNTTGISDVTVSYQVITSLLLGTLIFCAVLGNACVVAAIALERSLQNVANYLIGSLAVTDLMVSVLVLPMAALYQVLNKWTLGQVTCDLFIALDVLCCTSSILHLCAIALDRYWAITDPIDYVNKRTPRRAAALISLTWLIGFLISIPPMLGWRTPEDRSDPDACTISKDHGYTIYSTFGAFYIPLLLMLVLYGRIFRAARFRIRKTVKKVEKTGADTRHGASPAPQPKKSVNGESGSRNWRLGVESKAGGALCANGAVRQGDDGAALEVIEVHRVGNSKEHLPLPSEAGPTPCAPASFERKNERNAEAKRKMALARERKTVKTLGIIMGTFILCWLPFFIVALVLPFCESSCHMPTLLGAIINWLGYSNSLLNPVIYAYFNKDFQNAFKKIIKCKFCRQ
Experimental: (§1) Test 1: Evaluation of Agonistic Activity for Human 5-HT1A Receptor and Human D4 Receptor
(§2) Aequorin, Gα16 proteins, and each receptor were transiently expressed in CHO-K1 cell (Chinese hamster ovary), and seeded to 384-well plate. The plate was incubated in a CO2 incubator at 37° C. for 24 hours. Each example compound dissolved in DMSO was added thereto, and the change of luminescence amount was measured with Hamamatsu FDSS/μCELL System (Hamamatsu Photonics).

human D2 receptor = human D2 receptor (Homo sapiens (Human), UniProt P14416); assay: Test 2: binding activity to human D2 receptor ([3H] spiperone, CHO cell membrane); conditions: [3H] spiperone; read-out: D2 binding affinity (Ki value)
Chain of human D2 receptor (P14416 whole entry): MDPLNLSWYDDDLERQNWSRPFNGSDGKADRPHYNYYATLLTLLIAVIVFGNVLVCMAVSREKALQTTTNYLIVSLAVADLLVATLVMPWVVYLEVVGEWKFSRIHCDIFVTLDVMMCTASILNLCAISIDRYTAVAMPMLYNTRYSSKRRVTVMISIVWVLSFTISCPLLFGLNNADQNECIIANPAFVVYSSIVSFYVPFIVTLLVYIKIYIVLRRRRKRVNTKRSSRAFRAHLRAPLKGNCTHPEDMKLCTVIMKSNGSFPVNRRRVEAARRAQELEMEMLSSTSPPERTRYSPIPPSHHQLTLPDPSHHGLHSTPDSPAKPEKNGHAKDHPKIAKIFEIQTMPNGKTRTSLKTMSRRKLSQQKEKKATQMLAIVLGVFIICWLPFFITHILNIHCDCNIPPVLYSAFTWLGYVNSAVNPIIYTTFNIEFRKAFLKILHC
Experimental: (§3) Test 2: Evaluation of Binding Activity to Human 5-HT1A Receptor, Human D4 Receptor, and Human D2 Receptor
(§4) CHO cell membrane fraction in which human 5-HT1A receptor, human D4 receptor, and human D2 receptor were expressed was purchased from PerkinElmer Co., Ltd. In the evaluation test of binding, the test compound dissolved in DMSO, each receptor membrane preparation diluted with buffer solution, and [3H] […] The nonspecific binding to each receptor was evaluated by a competition binding experiment in the presence of 10 μmol/L 8-OH-DPAT, 10 μmol/L dopamine, or 10 μmol/L spiperone, respectively.

human 5-HT1A receptor [2] = biological target: T1, human 5-HT1A receptor; assay: Test 2: binding activity to human 5-HT1A receptor ([3H] 8-OH-DPAT, CHO cell membrane); conditions: [3H] 8-OH-DPAT; read-out: 5-HT1A binding affinity (Ki value)
Experimental: as §3, §4

[3] = Test 3-1: metabolic stability test of human liver microsome (0.1 mg/mL); type: in vitro ADME; conditions: test compound 0.1 μmol/L, 37° C., 30 minutes
Experimental: Test 3-1: Metabolic Stability Test of Human Liver Microsome
The stability of the present compounds for human liver microsome metabolism was evaluated as mentioned below. The used human liver microsome was obtained from Xenontech. Human liver microsome, NADPH, and each test compound were mixed in 25 mmol/L phosphate buffer solution (pH 7.4) to adjust each concentration as shown below, and the mixture was incubated at 37° C. for 30 minutes. • human liver microsome: 0.1 mg/mL • NAPDH: 3.2 mmol/L • test compound: 0.1 μmol/L
The residual ratio of the test compound in each sample after the incubation for 30 minutes was measured with a LC-MS, and the metabolic stability of human liver microsome was calculated about each test compound with the following formula. Metabolic stability of human liver microsome (mL/min/mg protein)=−LN (residual ratio)/“reaction time”/“concentration of human liver microsome”

hERG channel [4] = biological target: T2, hERG channel (Homo sapiens (Human), UniProt Q12809); assay: Test 5-1: activity for inhibiting hERG channel (whole-cell patch clamp, hERG-CHO cell, Qpatch); type: cell-based; conditions: read-out: hERG inhibition IC50
T2 sequence (Q12809 whole entry): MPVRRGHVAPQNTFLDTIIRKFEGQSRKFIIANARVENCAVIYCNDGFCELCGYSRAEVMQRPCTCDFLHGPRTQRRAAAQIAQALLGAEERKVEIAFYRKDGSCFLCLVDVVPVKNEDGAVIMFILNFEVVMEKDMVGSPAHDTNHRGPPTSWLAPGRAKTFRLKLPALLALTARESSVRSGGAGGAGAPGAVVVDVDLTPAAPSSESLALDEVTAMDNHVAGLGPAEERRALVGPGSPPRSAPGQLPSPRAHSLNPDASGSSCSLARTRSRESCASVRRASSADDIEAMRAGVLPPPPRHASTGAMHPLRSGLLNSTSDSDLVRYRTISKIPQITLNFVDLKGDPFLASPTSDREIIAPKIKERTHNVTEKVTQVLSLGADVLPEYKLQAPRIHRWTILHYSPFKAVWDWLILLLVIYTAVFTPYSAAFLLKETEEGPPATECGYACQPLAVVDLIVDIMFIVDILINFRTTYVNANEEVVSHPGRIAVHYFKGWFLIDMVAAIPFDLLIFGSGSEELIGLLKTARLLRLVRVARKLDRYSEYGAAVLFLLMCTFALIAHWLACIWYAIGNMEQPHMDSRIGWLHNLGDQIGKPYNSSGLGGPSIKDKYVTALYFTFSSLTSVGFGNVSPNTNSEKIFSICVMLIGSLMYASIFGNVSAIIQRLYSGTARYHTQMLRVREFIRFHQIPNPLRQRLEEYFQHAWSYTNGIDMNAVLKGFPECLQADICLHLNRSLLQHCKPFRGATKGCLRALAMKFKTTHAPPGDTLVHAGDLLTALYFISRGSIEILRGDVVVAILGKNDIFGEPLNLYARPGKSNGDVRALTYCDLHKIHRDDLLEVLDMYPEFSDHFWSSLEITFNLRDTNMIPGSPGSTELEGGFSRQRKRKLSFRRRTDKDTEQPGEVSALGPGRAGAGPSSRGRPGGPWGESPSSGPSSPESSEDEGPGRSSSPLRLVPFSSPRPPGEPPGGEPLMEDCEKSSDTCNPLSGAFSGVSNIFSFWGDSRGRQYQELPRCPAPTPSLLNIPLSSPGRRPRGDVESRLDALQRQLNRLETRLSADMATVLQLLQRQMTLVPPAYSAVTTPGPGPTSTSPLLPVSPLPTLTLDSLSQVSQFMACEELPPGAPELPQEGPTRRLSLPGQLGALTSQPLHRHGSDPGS
Experimental: Test 5-1: Evaluation of Activity for Inhibiting hERG Channel
(§5) The activity of the present compound for inhibiting hERG channel was measured by whole-cell patch clamp method with auto patch clamp system, using CHO cell wherein hERG channel involved in human rapidly activating delayed rectifier potassium current (IKr) was forcibly expressed.
(§6) hERG-CHO cell purchased from ChanTest was incubated at 37° C. in a CO2 incubator, and the cell was exfoliated from the flask with trypsin to prepare a cell suspension, shortly before the hERG current measurement.
(§7) Extracellular fluid: 2 mmol/L CaCl2, 1 mmol/L MgCl2, 10 mmol/L HEPES, 4 mmol/L KCl, 145 mmol/L NaCl, 10 mmol/L glucose
Intracellular fluid: 5.4 mmol/L CaCl2, 1.8 mmol/L MgCl2, 10 mmol/L HEPES, 31 mmol/L KOH, 10 mmol/L EGTA, 120 mmol/L KCl, 4 mmol/L Na2-ATP
Test compound solution: The test compound was dissolved in DMSO by adjusting the concentration to 2 mmol/L or 20 mmol/L to prepare each test compound solution. […] (Measurement of Current Value and Data Analysis)
The cell suspension, the extracellular fluid, the intracellular fluid, and the measurement plate were set in an auto patch clamp system, and the hERG current was measured by whole-cell patch clamp method. […] Each pulse interval was 15 seconds. The data analysis was carried out with Qpatch Assay Software (Biolin Scientific). The test was carried out applying increscently 4 concentrations of each test compound, and the average of the peak tail currents that were obtained by the last 3 stimulations in each applied concentration was determined to be the evaluated data. By using the current inhibition rate for the pre-applied current at each concentration of each test compound, IC50 value was calculated by Hill equation with the software.

human D4 receptor [5] = biological target: T3, human D4 receptor (Homo sapiens (Human), UniProt P21917); assay: Test 2: binding activity to human D4 receptor ([3H] dopamine, CHO cell membrane)
T3 sequence (P21917 whole entry): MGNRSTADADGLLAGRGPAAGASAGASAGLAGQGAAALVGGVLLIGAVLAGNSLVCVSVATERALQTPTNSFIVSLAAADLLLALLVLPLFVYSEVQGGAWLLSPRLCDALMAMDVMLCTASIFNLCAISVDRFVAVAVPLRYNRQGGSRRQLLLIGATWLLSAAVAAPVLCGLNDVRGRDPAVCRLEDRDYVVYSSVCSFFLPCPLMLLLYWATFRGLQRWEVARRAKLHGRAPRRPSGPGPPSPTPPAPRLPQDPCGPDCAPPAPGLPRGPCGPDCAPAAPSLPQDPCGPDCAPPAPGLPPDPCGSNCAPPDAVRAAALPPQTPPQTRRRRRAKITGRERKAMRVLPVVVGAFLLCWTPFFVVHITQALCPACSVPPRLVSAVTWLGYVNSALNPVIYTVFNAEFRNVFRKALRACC
Experimental: as §3, §4

human D4 receptor [6] = biological target: T3, human D4 receptor; assay: Test 1: agonistic activity for human D4 receptor (aequorin/Gα16 luminescence in CHO-K1 cell); type: cell-based; conditions: for D4 agonistic activity Emax / Emax: 100% = 10 μmol/L endogenous ligand; for EC50: CHO-K1 cell, aequorin luminescence; for Emax: CHO-K1
Experimental: as §1, §2

hERG channel [7] = biological target: T2, hERG channel; assay: Test 5-2: activity for inhibiting hERG channel (whole-cell patch clamp, hERG-CHO cell, Qube); type: cell-based; conditions: read-out: hERG inhibition IC50
Experimental: Test 5-2: Evaluation of Activity for Inhibiting hERG Channel
as §5, §6, §7
Intracellular fluid: 10 mmol/L HEPES, 10 mmol/L EGTA, 20 mmol/L KCl, 130 mmol/L KF
Test compound solution: The compound was dissolved in DMSO by adjusting the concentration to 2 mmol/L or 20 mmol/L to prepare each test compound solution. […] (Measurement of Current Value and Data Analysis)
The cell suspension, the extracellular fluid, the intracellular fluid, and the measurement plate were set in an auto patch clamp system, and the hERG current was measured by whole-cell patch clamp method. The voltage-protocol was as follows: the holding potential was adjusted to −80 mV, the depolarizing pulse was added at −50 mV to +20 mV for 5 seconds, the repolarizing pulse was added at −50 mV for 5 seconds, then the potential was returned to the holding potential. Each pulse interval was 15 seconds. The data analysis was carried out with Qube Assay Software (Sophion Scientific). The test was carried out applying increscently 4 concentrations of each test compound, and the average of the peak tail currents that were obtained by the last 3 stimulations in each applied concentration was made to be the evaluated data. By using the current inhibition rate for the pre-applied current at each concentration of each test compound, IC50 value was calculated by Hill equation with the software.

[8] = [3H] dopamine, read-out: D4 binding affinity (Ki value)

| SMILES | 5-HT1A agonistic activity Emax (human 5-HT1A receptor [1]) | EC50 (human 5-HT1A receptor [1]) | Ki (human D2 receptor) | Ki (human 5-HT1A receptor [2]) | Metabolic stability of human liver microsome [3] | Ki (human D4 receptor [5]; [8]) | D4 agonistic activity Emax (human D4 receptor [6]) | EC50 (human D4 receptor [6]) | Emax (human 5-HT1A receptor [1]) | Emax (human D4 receptor [6]) | IC50 (hERG channel [4]) | IC50 (hERG channel [7]) | Ki (human D4 receptor [5]) |
| --- | --- | --- | --- | --- | --- | --- | --- | --- | --- | --- | --- | --- | --- |
| O=C(NCCN1CCC(c2cccc(C(F)(F)F)n2)CC1)C1CCCOC1 (stereo not drawn) [Example 2] | 86% | 323 nM | > 10000 nM | 11 nM | 0.069 mL/min/mg protein | 109 nM | 61% | 58.9 nM |  |  | > 10000 nM |  |  |
| COCC1(C(=O)NCCN2CCC(c3cccc(C(F)(F)F)n3)CC2)CC1 [Example 7] | 106% | < 10 nM | > 10000 nM | 13 nM | 0.017 mL/min/mg protein | 43 nM | 58% | < 10 nM |  |  | 5600 nM |  |  |
| Cc1cccc(C2CCN(CCNC(=O)C(C)(C)C)CC2)n1 [Example 10] | 90% |  |  |  | 0.015 mL/min/mg protein |  | 85% |  |  |  | > 10000 nM |  |  |
| Cc1cccc(C2=CCN(CCNC(=O)C3CCOCC3)CC2)n1 [Example 29, N-[2-(6-Methyl-3′,6′-dihydro[2,4′-bipyridin]-1′(2′H)-yl)ethyl]-tetrahydro-2H-pyran-4-carboxamide] |  | < 10 nM | > 10000 nM | 0.4 nM | <0.05 mL/min/mg protein |  |  | 24 nM | 50% | 74% |  | > 10000 nM | 22 nM |
| Cc1cccc(C2=CCN(CCNC(=O)C(C)(C)C)CC2)n1 [Example 30, 2,2-Dimethyl-N-[2-(6-methyl-3′,6′-dihydro[2,4′-bipyridin]-1′ (2′H)-yl)ethyl]propanamide] |  | 27 nM | > 10000 nM | 1.4 nM | 0.114 mL/min/mg protein |  |  | < 10 nM | 36% | 59% |  | > 10000 nM | 14 nM |
| CC(C)(C)C(=O)NCCN1CC=C(c2cccc(C(F)(F)F)n2)CC1 [Example 31, 2,2-Dimethyl-N-{2-[6-(trifluoromethyl)-3′,6′-dihydro[2,4′-bipyridin]-1′ (2′H)-yl]ethyl}propanamide] |  | 35 nM | 1280 nM | 0.3 nM | <0.05 mL/min/mg protein |  |  | < 10 nM | 40% | 52% |  | > 10000 nM | 2.9 nM |

Second part, led by results:

| 5-HT1A agonistic activity Emax (human 5-HT1A receptor [1]) | EC50 (human 5-HT1A receptor [1]) | Ki (human D2 receptor) | Ki (human 5-HT1A receptor [2]) | Metabolic stability of human liver microsome [3] | Ki (human D4 receptor [5]; [8]) | D4 agonistic activity Emax (human D4 receptor [6]) | EC50 (human D4 receptor [6]) | Emax (human 5-HT1A receptor [1]) | Emax (human D4 receptor [6]) | SMILES | IC50 (hERG channel [4]) | IC50 (hERG channel [7]) | Ki (human D4 receptor [5]) |
| --- | --- | --- | --- | --- | --- | --- | --- | --- | --- | --- | --- | --- | --- |
|  | 38 nM | > 10000 nM | 7.1 nM | <0.01 mL/min/mg protein | 198 nM | 76% | 33.5 nM |  |  | Cc1cccc(C2CCN(CCNC(=O)C3CC4CCC3O4)CC2)n1 (stereo not drawn) [Example 3] | 32100 nM |  |  |
| 90% | < 10 nM | > 10000 nM | 0.4 nM | <0.01 mL/min/mg protein | 26 nM | 71% | 25.1 nM |  |  | Cc1cccc(C2CCN(CCNC(=O)C3CCC(F)(F)CC3)CC2)n1 [Example 4] | 4000 nM |  |  |
|  | 67 nM | 3330 nM | 20 nM | <0.05 mL/min/mg protein | 423 nM |  | 30 nM | 46% | 49% | O=C(NCCN1CCC(c2cccc(C(F)(F)F)n2)CC1)C1CCCO1 (stereo not drawn) [Example 25] |  | > 10000 nM |  |
|  | 47 nM | 2470 nM | 28 nM | <0.05 mL/min/mg protein | 104 nM |  | 37 nM | 69% | 44% | O=C(NCCN1CCC(c2cccc(OC(F)(F)F)n2)CC1)C1CCOCC1 [Example 28] |  | > 10000 nM |  |
|  | 22 nM | > 10000 nM | 21 nM | <0.05 mL/min/mg protein | 119 nM |  | 13 nM | 83% | 62% | COc1cccc(C2CCN(CCNC(=O)C3CCOCC3)CC2)n1 [Example 33] |  | > 10000 nM |  |
|  | 22 nM | > 10000 nM | 10 nM | <0.05 mL/min/mg protein | 56 nM |  | 15 nM | 42% | 55% | O=C(NCCN1CCC(c2cccc(C(F)F)n2)CC1)C1CCOCC1 [Example 34] |  | 5500 nM |  |
|  | 86 nM | > 10000 nM | 37 nM | <0.05 mL/min/mg protein | 10 nM |  | 42 nM | 50% | 35% | CN(C)c1cccc(C2CCN(CCNC(=O)C3CCOCC3)CC2)n1 [Example 38, N-(2-{4-[6-(Dimethylamino)pyridin-2-yl]piperidin-1-yl}ethyl)-tetrahydro-2H-pyran-4-carboxamide] |  | > 10000 nM |  |
